One assay addresses AspH (Homo sapiens, UniProt Q12797). The assay can be described thus: biochemical. The source says: (§1) To investigate the potential of BNS for selective FIH inhibition, its selectivity was investigated with respect to other 2OG-dependent protein oxidising enzymes, that is PHD2, Jumonji-C domain-containing protein 5 (JMJD5), aspartate/asparagine-β-hydroxylase (AspH) and KDM4A, using reported SPE-MS inhibition assays.[58,61,69,70] In addition to PHD2 and KDM4A, we included AspH and JMJD5 in our selectivity studies, because AspH, like FIH, catalyses protein aspartate- and asparagine-residue hydroxylation (although in epidermal growth factor-like domains),[71,72] and because JMJD5 is structurally closely related to FIH.[73,74]
(§2) 3. Biochemical procedures
(§3) Protein production and purification
(§4) PAGE analysis) according to established procedures.
(§5) FIH, PHD2, AspH, JMJD5 and KDM4A inhibition assays
(§6) The in vitro FIH,1, 2 PHD2,1 AspH,38 JMJD536 and KDM4A39 inhibition assays were performed as […]
(§7) KDM4A). Synthetic peptide substrates were used: HIF-1α C-terminal transactivation domain fragment […]
(§8) H3Lys9 bearing three methyl groups at the N ϵ position, H3Lys4 substituted by an Ala and H3Lys14 substituted by an Ile residue) for KDM4A.39 Peptides were prepared as C-terminal amides by GL Biochem (Shanghai) Ltd. Peptide hydroxylation in the case of FIH, PHD2, AspH and JMJD5 (+16 Da mass shift) or peptide demethylation in the case of KDM4A ( -14 Da mass shift) was monitored by SPE-MS. […]

Another assay deals with JMJD5 (Homo sapiens, UniProt Q8N371). The assay can be described thus: biochemical.
From the text: as §1, §2, §3, §4, §5, §6, §7, §8

A further assay deals with KDM4A (Homo sapiens, UniProt O75164). The assay can be described thus: biochemical. The assay is classed as biochemical.
From the text: as §1, §2, §3, §4, §5, §6, §7, §8

For a further assay, the target named is T1, FIH (Homo sapiens, UniProt Q9NWT6).
T1 construct: made in house
The assay can be described thus: SPE-MS FIH inhibition assay. The assay is classed as biochemical. The following applies: for reduction of FIH inhibition compared to 4: IC50 comparison with compound 4. The protocol: as §3, §4, §5, §6, §7, §8

The next assay concerns the target PHD2 (Homo sapiens, UniProt Q9GZT9). The assay can be described thus: biochemical. The protocol: as §2, §3, §4, §5, §6, §7, §8
Where [1] appears, read: 0.15 μM FIH, 10.0 μM 2OG, 5.0 μM HIF-1α C-TAD788–822, SPE-MS, read-out: FIH IC50.

Each structure is given as a SMILES string. Where “and” joins values, the source holds several entries; their conditions need not be identical. Equal entries are not always repeated. Where two headings read alike, the source gives them in different places. Where only a bound is given, the exact number is not on record here.

T1 sequence (Q9NWT6 whole entry): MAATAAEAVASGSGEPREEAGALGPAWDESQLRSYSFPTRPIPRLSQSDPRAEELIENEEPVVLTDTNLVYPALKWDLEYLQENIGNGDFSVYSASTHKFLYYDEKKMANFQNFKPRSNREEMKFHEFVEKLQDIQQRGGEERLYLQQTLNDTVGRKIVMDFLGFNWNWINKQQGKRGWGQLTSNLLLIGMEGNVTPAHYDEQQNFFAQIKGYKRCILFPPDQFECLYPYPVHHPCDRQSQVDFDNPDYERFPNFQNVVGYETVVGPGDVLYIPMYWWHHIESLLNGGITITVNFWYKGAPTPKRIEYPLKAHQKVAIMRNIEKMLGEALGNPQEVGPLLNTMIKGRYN
Chain of JMJD5 (Q8N371 whole entry): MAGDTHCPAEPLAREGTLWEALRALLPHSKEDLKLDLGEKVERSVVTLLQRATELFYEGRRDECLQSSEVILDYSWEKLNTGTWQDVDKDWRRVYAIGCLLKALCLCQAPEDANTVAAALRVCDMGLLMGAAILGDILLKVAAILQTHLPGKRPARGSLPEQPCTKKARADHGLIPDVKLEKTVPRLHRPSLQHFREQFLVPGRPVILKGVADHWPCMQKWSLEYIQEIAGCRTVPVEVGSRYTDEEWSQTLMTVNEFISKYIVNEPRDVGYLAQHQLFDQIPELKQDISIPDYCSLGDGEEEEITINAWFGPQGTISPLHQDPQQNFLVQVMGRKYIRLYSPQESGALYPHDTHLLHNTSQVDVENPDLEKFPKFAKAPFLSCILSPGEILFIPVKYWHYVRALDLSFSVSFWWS
Chain of AspH (Q12797 315-758): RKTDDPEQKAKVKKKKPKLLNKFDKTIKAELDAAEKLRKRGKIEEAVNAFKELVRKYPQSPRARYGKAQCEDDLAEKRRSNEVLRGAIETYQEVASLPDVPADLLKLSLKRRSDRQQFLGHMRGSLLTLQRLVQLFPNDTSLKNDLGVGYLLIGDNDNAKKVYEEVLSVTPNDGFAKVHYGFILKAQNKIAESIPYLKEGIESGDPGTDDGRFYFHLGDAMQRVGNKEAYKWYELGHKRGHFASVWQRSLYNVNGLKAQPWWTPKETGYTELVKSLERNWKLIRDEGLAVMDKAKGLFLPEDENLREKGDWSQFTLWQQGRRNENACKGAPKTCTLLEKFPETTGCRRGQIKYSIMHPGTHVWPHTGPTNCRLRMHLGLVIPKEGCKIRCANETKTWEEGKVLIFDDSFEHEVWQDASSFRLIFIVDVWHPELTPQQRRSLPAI
Chain of PHD2 (Q9GZT9 181-426): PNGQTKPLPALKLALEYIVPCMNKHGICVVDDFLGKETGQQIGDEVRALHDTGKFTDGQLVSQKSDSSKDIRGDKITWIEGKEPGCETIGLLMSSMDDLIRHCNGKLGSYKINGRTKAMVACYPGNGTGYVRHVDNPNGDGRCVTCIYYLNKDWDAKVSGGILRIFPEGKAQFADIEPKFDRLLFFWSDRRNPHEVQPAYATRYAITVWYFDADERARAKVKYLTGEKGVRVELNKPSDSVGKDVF
Chain of KDM4A (O75164 1-359): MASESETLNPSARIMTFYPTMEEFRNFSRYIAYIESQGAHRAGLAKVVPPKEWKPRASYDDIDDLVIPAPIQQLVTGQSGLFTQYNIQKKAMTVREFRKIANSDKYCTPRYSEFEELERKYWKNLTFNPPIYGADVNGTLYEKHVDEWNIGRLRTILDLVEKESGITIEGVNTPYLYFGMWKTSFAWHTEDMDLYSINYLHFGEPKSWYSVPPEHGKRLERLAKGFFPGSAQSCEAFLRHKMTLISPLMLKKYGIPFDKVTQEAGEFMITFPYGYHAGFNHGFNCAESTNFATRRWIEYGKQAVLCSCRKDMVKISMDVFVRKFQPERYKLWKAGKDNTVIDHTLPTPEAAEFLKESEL

As for `O=C(O)CCc1cs/c(=N\C(=O)CS(=O)(=O)c2ccccc2)n1O` [compound 13], the 50% inhibitory concentration (IC50) was 47.3 ± 4.7 µM at AspH, above 100 µM on JMJD5 (read-out: JMJD5 IC50), above 100 µM on KDM4A and 2.2 ± 0.6 µM on FIH. For the same compound, the “reduction of FIH inhibition compared to 4” value (“reduction of FIH inhibition” for short) on FIH is listed as around 10 fold.
For `Cc1s/c(=N\C(=O)CS(=O)(=O)c2ccccc2)n(O)c1CC(=O)O` [compound 7], the IC50 was 24.3 ± 12.3 µM on AspH, above 100 µM on JMJD5 (read-out: JMJD5 IC50), above 100 µM against KDM4A and 36.7 ± 4.9 µM against FIH. For the same compound, the “reduction of FIH inhibition” value on FIH is above 100 fold.
On to `O=C(O)Cc1cs/c(=N\C(=O)C2CCCN2S(=O)(=O)c2ccccc2)n1O` (stereo not drawn) [compound 28], for which the IC50 on AspH was 24.9 ± 12 µM; at JMJD5 (read-out: JMJD5 IC50), 2.6 ± 0.2 µM; against KDM4A, above 100 µM; against PHD2 it was 12.7 ± 1.8 µM; at FIH it was 2.1 ± 1.5 µM.
In the case of `O=C(O)Cc1cs/c(=N\C(=O)CS(=O)(=O)Cc2ccc3ccccc3c2)n1O` [BNS, reference compound], the IC50 is 3.36 µM and 3.4 µM on AspH; 0.25 ± 0.01 µM at JMJD5 (read-out: JMJD5 IC50); 67.4 ± 39.8 µM against KDM4A; 0.11 µM against PHD2 (0.15 μM PHD2 181–426, 10.0 μM 2OG, 5.0 μM HIF-1α CODD556–574, SPE-MS); 0.3 ± 0.07 µM at FIH. Also, the “increase in FIH inhibitory activity compared with other PHD inhibitors” value at FIH (as judged by IC50 comparison, ESI Table S1) is given as above 50 fold. For the same compound, the “selectivity for FIH inhibition over PHD2 inhibition” value at FIH (as judged by IC50 values) was around 0.4 fold.
`O=C(O)CNC(=O)c1c(O)c2ccccc2n(OCC2CC2)c1=O` [Desidustat, reference compound]: the half-inhibitory concentration (IC50) against FIH was 41.4 ± 1.1 µM.
The compound `O=C(O)CNC(=O)c1c(O)cc(CCc2ccccc2)n2ncnc12` [Enarodustat, reference compound] gave an IC50 against FIH above 100 µM.
For the compound `O=C(O)CNC(=O)c1c(O)c2cc(F)ccc2n(CCC2CC2)c1=O` [GSK360A, reference compound], the 50% inhibitory concentration (IC50) at FIH (setting [1]) is above 100 µM.
`O=C(O)c1cnn(-c2nc3cc(OC(F)(F)F)c(Cl)cc3[nH]2)c1` [JNJ-42041935, reference compound]: the 50% inhibitory concentration (IC50) on FIH (setting [1]) amounted to 56.4 ± 1.6 µM.
In the case of `CC(=O)/N=c1\scc(CC(=O)O)n1O` [compound 14], the IC50 on AspH was above 100 µM; at JMJD5 (read-out: JMJD5 IC50), 3.2 ± 0.7 µM; at KDM4A, above 100 µM; at PHD2 it was above 100 µM; against FIH it was 52.4 ± 30.4 µM. Moreover, the “reduction of FIH inhibition” value at FIH is above 200 fold.
As for `O=C(O)Cc1cs/c(=N\C(=O)CNC(=O)c2ccccc2)n1O` [compound 16], the IC50 is 2.4 ± 1.1 µM against AspH, 1.7 ± 0.3 µM at JMJD5 (read-out: JMJD5 IC50), above 100 µM against KDM4A and 1.2 ± 0.2 µM against FIH.
The matching figures for `O=C(O)Cc1cs/c(=N\C(=O)COc2ccccc2)n1O` [compound 22]: 20.2 ± 6.6 µM, 1.2 ± 0.2 µM, above 100 µM and 0.75 ± 0.23 µM.
Regarding `O=C(O)Cc1cs/c(=N\C(=O)CS(=O)(=O)Nc2ccccc2)n1O` [compound 21], the IC50 on AspH was 0.76 ± 0.1 µM; at JMJD5 (read-out: JMJD5 IC50), 2.8 ± 0.9 µM; at KDM4A, above 100 µM; on PHD2, 0.57 ± 0.18 µM; against FIH it was 0.36 ± 0.21 µM. The “AspH inhibition potency relative to 4 (more potent)” value on AspH (IC50 comparison with compound 4) was around 5 fold.
`O=C(O)Cc1cs/c(=N\C(=O)CS(=O)(=O)c2ccccc2)n1O` [compound 4]: the IC50 is 9.6 ± 1.3 µM against AspH, 0.48 ± 0.01 µM at JMJD5 (read-out: JMJD5 IC50), above 100 µM against KDM4A and 0.28 µM at FIH.
Take `O=C(O)CNC(=O)C1=C(O)CCN(Cc2ccc(Oc3ccc(Cl)cc3)nc2)C1=O` [TP0463518, reference compound]: the IC50 on FIH (setting [1]) came out at 39.7 ± 0.6 µM.
Consider `CC(C(=O)O)c1cs/c(=N\C(=O)CS(=O)(=O)c2ccccc2)n1O` (stereo not drawn) [compound 6], for which the IC50 was 25.6 ± 12.7 µM against AspH, 60.5 ± 1 µM on JMJD5, above 100 µM against KDM4A and 61 ± 3.1 µM on FIH. For the same compound, the “reduction of FIH inhibition” value on FIH is recorded as above 100 fold.
Regarding `O=C(O)Cc1cs/c(=N\C(=O)CNc2ccccc2)n1O` [compound 23], the IC50 on AspH amounted to 11.1 ± 0.4 µM; on JMJD5 (read-out: JMJD5 IC50) it was 4.7 ± 1.1 µM; against KDM4A, 71.6 ± 11.8 µM; against FIH it was 3.2 ± 1.1 µM.

The IC50 is the concentration that inhibits the measured activity by half.

The values are drawn from paper PMC10631261 (Chemical Science, 2023).
